Experimental data from US20240018480A1, “ENHANCEMENT OF EXTRACELLULAR VESICLE PRODUCTION BY LYSOSOME INHIBITOR” (ExoTop Theragnostics Inc., priority 2022, published 2024).
“Also recorded” adds a separate entry of the source.

Legend:
[1] = test system: fatty acid synthase (FASN); test: qPCR relative quantification (RQ) of fatty acid synthase (FASN) in MSCs; type: cell-based, human; details: FIG. 3C
human CD63 (hCD63) gene = test: RT-qPCR of hCD63 gene expression in MSCs cultured in different media; type: cell-based; details: FIG. 2B
Description: (§1) Mesenchymal stem cells were seeded on the plate at a density of ˜5000 cells/cm^2 and the plate was placed in 5% CO2 humidified incubator. One day after the incubation, the culture media was aspirated to remove non-adherent cells and switched with a fresh media. The plate was incubated again. After further culturing for around 3 to 5 days, the culture media was aspirated and replaced by CDPF and/or lysosome inhibitor medium. The cells were cultured in the CDPF and/or lysosome inhibitor medium for 12, 24, or 48 hours. After the designated period of culturing, the culture media was collected and cell lysis buffer was immediately added to the cells on the plate. The collected media and cell lysate were each independently subjected to detection of the level of CD63 by ELISA and by qPCR, respectively.
To compare hCD63+ expression in MSCs cultured in various media including CCM, CDPF, and CDPF with lysosome inhibitor, RT-quantitative real-time PCR (RT-qPCR) assays were performed.

human MSCs [2] = test: Intracellular acidification of MSCs, acidic organelles stained by lysotracker red; type: cell-based; details: MSCs in CDPF with lysosome inhibitor vs CCM and CDPF, FIG. 2A
Description: as §1
Human MSCs were cultured in different media including complete culture medium (CCM), CDPF, and CDPF with lysosome inhibitor. The acidic organelles in live stem cells were stained by lysotracker red. […] Without lysosome inhibitor, the intracellular acidification was not suppressed.

human MSCs [3] = test: CD63 ELISA of culture media collected after culture with stem cells (secretion of EVs); type: cell-based; details: FIG. 3A
Description: as §1, with “5000” for “˜5000”
To quantitatively compare CD63+ expression in CM cultured in various media including CCM, CDPF, and CDPF with lysosome inhibitor, enzyme-linked immunosorbent (ELISA) assays were performed.

[4] = MSCs in CDPF with lysosome inhibitor, RT-qPCR

For `CCN(CC)CCCC(C)Nc1ccnc2cc(Cl)ccc12` (stereo not drawn) [lysosome inhibitor, chloroquine], the “expression of FASN, times higher than MSCs cultured in CCM” value ([1]; MSCs in CCM with lysosome inhibitor, RT-qPCR) was “about 25 times”, the “expression of FASN, times higher than MSCs cultured in CDPF without lysosome inhibitor” value [1, 4] was “about 5 times” and the “gene expression of FASN (in words)” value ([1]; treatment with the inhibitor, qPCR RQ) was “drastically induced”. The “expression of human CD63 gene in the MSCs (in words)” value (human CD63 (hCD63) gene; CDPF with lysosome inhibitor vs CCM, CDPF, qPCR) was “increased; also recorded: dramatic increase”, the “expression of hCD63+ gene, times higher than MSCs cultured in CCM” value (human CD63 (hCD63) gene; [4]) was “about 10 times” and the “expression of hCD63+ gene, times higher than MSCs cultured in CDPF without lysosome inhibitor” value (human CD63 (hCD63) gene; [4]) was “about 5 times”. The “intracellular acidification of human MSCs” value (human MSCs [2]) was “suppressed”, the “secretion of EVs (CD63-positive particles) from stem cells to the cultured media (in words)” value (human MSCs [3]; Ly_Inhibitor+CDPF vs CCM and CDPF, CD63 ELISA) was “stimulated” and the “EV production (CD63+ particles), times higher than MSCs cultured in CCM or in CDPF without lysosome inhibitor” value (human MSCs [3]; MSCs in CDPF with lysosome inhibitor, CD63 ELISA of media) was “about 2.3 times”.
